From ChEMBL document CHEMBL1136184, “Identification of a novel class of orally active pyrimido[5,4-3][1,2,4]triazine-5,7-diamine-based hypoglycemic agents with protein tyrosine phosphatase inhibitory activity” (Bioorg Med Chem Lett, 2003)
Values joined by “and” are separate entries in the source; they are usually repeats but may differ in a detail not shown here. Equal entries are not always repeated.

How the values were obtained:
[1] = target: T1, Tyrosine-protein phosphatase non-receptor type 1 (Homo sapiens, UniProt P18031); assay: Inhibition of Protein-tyrosine phosphatase 1B in 2 mM DTT
T1 sequence (P18031 whole entry): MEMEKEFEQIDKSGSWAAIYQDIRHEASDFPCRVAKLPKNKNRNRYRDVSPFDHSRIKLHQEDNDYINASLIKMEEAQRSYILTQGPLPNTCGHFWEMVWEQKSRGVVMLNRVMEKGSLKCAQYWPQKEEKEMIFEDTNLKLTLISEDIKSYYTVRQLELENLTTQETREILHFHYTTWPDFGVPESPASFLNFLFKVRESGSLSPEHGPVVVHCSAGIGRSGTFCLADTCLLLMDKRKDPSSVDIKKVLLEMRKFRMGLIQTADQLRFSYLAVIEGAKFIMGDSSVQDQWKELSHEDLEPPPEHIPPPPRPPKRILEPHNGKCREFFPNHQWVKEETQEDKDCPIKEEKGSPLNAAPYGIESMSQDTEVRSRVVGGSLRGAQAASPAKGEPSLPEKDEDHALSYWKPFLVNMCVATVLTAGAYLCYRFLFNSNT

[2] = target: T1, Tyrosine-protein phosphatase non-receptor type 1; assay: Inhibition of Protein-tyrosine phosphatase 1B in 300 nM DTT
[3] = target: Receptor-type tyrosine-protein phosphatase F (Homo sapiens, UniProt P10586); assay: In vitro inhibitory concentration required against Leukocyte antigen related receptor phosphatase (LAR) in the presence of 300 nM DTT
Sequence of Receptor-type tyrosine-protein phosphatase F (P10586 whole entry): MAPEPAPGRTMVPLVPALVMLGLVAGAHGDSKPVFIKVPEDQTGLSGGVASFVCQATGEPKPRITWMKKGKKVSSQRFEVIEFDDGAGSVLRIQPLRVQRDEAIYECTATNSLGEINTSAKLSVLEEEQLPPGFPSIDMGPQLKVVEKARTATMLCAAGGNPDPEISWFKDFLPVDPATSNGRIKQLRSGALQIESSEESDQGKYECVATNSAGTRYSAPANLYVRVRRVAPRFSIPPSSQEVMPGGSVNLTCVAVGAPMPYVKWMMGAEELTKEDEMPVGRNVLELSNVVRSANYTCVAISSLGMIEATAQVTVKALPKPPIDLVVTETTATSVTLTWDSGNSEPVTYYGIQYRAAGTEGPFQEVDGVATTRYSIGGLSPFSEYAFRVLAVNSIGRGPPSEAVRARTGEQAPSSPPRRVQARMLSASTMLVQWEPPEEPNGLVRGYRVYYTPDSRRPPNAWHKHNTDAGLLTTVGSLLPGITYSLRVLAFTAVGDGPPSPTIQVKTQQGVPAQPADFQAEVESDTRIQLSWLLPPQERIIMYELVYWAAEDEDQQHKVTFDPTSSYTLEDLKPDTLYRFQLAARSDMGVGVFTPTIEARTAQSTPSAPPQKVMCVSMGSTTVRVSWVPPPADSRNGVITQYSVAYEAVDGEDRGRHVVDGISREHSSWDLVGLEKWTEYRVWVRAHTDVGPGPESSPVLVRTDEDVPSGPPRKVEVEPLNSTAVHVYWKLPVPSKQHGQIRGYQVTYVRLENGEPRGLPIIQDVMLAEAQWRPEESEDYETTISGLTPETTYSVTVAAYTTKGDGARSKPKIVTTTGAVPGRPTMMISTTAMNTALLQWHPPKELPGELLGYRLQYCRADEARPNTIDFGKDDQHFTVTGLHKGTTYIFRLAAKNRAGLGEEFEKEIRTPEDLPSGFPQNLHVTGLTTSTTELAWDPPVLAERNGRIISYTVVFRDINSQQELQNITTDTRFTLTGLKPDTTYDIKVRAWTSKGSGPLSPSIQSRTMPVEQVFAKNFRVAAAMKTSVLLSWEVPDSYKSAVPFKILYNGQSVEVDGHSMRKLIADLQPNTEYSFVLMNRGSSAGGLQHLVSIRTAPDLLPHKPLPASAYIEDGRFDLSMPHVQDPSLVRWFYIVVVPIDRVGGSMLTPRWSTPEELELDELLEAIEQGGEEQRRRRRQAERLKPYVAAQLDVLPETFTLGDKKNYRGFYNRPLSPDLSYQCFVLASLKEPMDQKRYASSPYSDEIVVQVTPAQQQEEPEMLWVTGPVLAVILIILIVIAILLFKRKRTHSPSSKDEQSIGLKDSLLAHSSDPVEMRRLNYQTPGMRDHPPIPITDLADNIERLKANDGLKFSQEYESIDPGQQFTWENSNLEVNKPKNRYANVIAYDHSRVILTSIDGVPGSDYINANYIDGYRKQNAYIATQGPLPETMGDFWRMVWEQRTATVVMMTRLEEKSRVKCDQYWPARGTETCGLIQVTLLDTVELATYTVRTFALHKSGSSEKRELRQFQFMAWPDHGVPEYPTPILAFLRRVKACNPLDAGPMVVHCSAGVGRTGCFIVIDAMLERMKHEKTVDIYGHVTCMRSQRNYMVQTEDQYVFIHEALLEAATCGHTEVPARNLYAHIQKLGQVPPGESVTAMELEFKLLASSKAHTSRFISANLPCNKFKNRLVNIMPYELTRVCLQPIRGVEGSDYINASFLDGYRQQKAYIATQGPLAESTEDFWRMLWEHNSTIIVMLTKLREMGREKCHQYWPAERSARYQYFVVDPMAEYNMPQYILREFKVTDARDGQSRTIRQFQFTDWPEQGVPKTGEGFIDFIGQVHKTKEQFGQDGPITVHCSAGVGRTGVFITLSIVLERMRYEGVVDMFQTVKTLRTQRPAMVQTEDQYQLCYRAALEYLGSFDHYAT

Mus musculus = assay: Percent change in blood glucose in male ob/ob mice dosed at 5 mg/kg orally evaluated 2 hr postdose on day 5; assay type: functional; details: route oral
[4] = target: Receptor-type tyrosine-protein phosphatase alpha (Homo sapiens, UniProt P18433); assay: In vitro inhibitory concentration required against Protein-tyrosine phosphatase alpha in the presence of 300 nM DTT
Sequence of Receptor-type tyrosine-protein phosphatase alpha (P18433 whole entry): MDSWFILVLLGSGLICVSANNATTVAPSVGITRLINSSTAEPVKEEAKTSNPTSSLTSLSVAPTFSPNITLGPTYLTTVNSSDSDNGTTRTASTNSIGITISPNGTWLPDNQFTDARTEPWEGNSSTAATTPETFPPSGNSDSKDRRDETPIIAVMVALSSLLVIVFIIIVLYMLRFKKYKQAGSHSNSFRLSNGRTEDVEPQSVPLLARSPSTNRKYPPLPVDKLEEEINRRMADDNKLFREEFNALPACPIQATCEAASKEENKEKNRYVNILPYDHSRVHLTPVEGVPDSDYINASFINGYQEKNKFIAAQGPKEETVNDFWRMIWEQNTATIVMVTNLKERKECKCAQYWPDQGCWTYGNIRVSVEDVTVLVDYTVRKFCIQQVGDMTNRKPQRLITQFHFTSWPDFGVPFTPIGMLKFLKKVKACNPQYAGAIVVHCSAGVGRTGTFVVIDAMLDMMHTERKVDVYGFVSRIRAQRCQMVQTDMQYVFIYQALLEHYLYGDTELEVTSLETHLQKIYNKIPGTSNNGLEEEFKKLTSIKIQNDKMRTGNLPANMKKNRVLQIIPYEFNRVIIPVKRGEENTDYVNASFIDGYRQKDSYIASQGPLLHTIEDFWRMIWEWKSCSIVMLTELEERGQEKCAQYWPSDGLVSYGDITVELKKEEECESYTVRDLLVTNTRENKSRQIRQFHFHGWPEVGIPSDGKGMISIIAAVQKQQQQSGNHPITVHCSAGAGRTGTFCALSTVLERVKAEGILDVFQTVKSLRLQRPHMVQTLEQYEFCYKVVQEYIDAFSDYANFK

[5] = target: T2, Tyrosine-protein phosphatase non-receptor type 11 (Homo sapiens, UniProt Q06124); assay: In vitro inhibitory concentration required against Tyrosine phosphatase SHP-2 in the presence of 300 nM DTT
T2 sequence (Q06124 whole entry): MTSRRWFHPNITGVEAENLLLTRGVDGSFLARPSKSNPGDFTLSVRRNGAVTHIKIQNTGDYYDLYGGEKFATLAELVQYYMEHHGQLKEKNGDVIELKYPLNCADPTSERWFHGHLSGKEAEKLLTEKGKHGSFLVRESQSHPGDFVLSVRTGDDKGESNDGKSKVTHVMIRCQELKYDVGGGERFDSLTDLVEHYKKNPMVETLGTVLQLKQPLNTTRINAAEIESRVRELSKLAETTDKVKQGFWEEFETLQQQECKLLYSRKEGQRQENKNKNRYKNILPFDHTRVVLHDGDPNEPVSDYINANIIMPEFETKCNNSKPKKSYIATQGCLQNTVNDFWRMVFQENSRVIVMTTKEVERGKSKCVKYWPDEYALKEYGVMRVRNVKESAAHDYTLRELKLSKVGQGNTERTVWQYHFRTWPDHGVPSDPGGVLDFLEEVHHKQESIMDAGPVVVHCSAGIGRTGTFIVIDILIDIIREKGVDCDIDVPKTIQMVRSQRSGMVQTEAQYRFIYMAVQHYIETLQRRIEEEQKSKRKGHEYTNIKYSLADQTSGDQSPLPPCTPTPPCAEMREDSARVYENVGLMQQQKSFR

[6] = Cmax value was determined; assay type: ADME, organism-based; details: mouse, in vivo
[7] = Plasma clearance in mice; assay type: ADME, organism-based; details: mouse
[8] = Oral availability at 50 mg/kg po in male mice; assay type: ADME, organism-based; parameters: dose 50 mg/kg, route oral; details: mouse, in vivo
[9] = Half life in mice; assay type: ADME, organism-based; details: mouse, in vivo
[10] = Steady state volume of distribution was determined in mice; assay type: ADME, organism-based; details: mouse, in vivo; read-out: Vss

Row | IC50 [1] | IC50 [2] | SMILES | also measured
1 | > 100 µM | 97 µM | Nc1nc(N)c2nc(CN(CCO)CCO)nnc2n1 | 
2 | 98 µM | 6.2 µM and 8 µM | Nc1nc(N)c2nc(CN3CCN(Cc4ccccc4)CC3)nnc2n1 | IC50 [3]: 12 µM; Change in blood glucose (Mus musculus): -23%; IC50 [4]: 24 µM; IC50 [5]: 9 µM
3 | > 100 µM | > 100 µM | Nc1nc(N)c2nc(CN3CCN(c4ccccc4)CC3)nnc2n1 | 
4 | > 100 µM | 24 µM | Nc1nc(N)c2nc(CN3CCOCC3)nnc2n1 | 
5 | 40 µM | 4.5 µM | Nc1nc(N)c2nc(CN3CCN(Cc4cccc5ccccc45)CC3)nnc2n1 | 
6 | 33 µM | 3.5 µM | Nc1nc(N)c2nc(CN3CCN(Cc4ccc5ccccc5c4)CC3)nnc2n1 | 
7 | 18 µM | 2.9 µM and 8 µM | Nc1nc(N)c2nc(CN3CCN(Cc4ccc(-c5ccccc5)cc4)CC3)nnc2n1 | Cmax [6]: 4 µM; clearance [7]: 104 mL/min/kg; bioavailability [8]: 97%; half-life [9]: 1 h; IC50 [3]: 16 µM; Change in blood glucose (Mus musculus): -19%; IC50 [4]: 15 µM; IC50 [5]: 5 µM; Vd [10]: 3.1 L/kg
8 | 87 µM | 21 µM | CN1CCN(Cc2nnc3nc(N)nc(N)c3n2)CC1 | 
9 | > 100 µM | 24 µM | Nc1nc(N)c2nc(CN3CCCCC3)nnc2n1 | 
10 | > 100 µM | 29 µM and 12 µM | CCN(CC)Cc1nnc2nc(N)nc(N)c2n1 | IC50 [3]: 28 µM; IC50 [4]: 28 µM; IC50 [5]: 14 µM

Row | SMILES | IC50 [1] | IC50 [2] | also measured
11 | Nc1nc(N)c2nc(CN3CCNCC3)nnc2n1 | 91 µM | 29 µM | 
